Measurements: patent publication US6562828B1, “Amidine compounds” (Japan Tobacco Inc., priority 1998, dated 2003)
Where a name gives a salt, the structure may show the parent alone.

Tests used:
[1] = system: normal plasma; experiment: Determination of prothrombin time (PT), mouse plasma; assay type: biochemical
Protocol: (§1) Determination of prothrombin time (PT)
(§2) Blood was taken from mouse, rat, crab-eating monkey and healthy human volunteers, and citric acid was added. The blood was centrifuged at 4° C. and 2000 G for 15 min to obtain normal plasma of various animals.
(§3) Purified water (5 μl) containing various concentrations of test compound was added to plasma (45 μl) and the resultant mixtures were used as samples. […] (Baxter) was prepared and heated at […] for 5 min, and a sample (50 μl) was admixed with the thrombin reagent (100 μl). The time (PT) until precipitation of fibrin was measured. The drug concentration that doubled the PT hours of the drug untreated group was calculated and taken as CT2.

[2] = system: normal plasma; experiment: Determination of prothrombin time (PT), crab-eating monkey plasma; assay type: biochemical
Protocol: as §1, §2, §3

[3] = target: T1, Human FXa (Homo sapiens, UniProt P00742); experiment: Oral administration test in mouse, human FXa inhibitory activity in serum; assay type: in vivo; conditions: ICR mice, mean ± S.D., n = 3
T1 construct: Human FXa [Enzyme research Laboratories (USA)] enzyme; purchased Enzyme Research Laboratories (USA)
Protocol: (§4) Human FXa inhibitory activity was measured as follows. Human FXa [Enzyme research Laboratories (USA)] enzyme (40 μl, 0.5 U/ml) and a 4-fold diluted plasma sample (40 μl) were incubated in 0.1M Tris-0.2M NaCl buffer (pH 8.4) (40 μl) at 37° C. for 10 min. A synthetic substrate S-2222 (Daiichi Pure Chemical (Tokyo, Japan), 40 μl) adjusted to 0.8 mM was added and the mixture was incubated at 37° C. for 5 min. The reaction was stopped by addition of 60% acetic acid (40 μl) and absorbance at 405 nm was measured by Model 3550 (BIO-RAD). For the control, serum or plasma obtained prior to blood sampling was used for measurement. Human FXa inhibitory activity was calculated as inhibition percentage (%) against control.
Oral Administration Tests in Mouse
A test compound dissolved in distilled water was orally administered to ICR mice (body weight 20-30 g, 4-6 weeks old) and the activity of the test compound was evaluated based on the human FXa inhibitory activity in serum as an indicator.
At 30, 60, 120, 180 min from the oral administration, blood was taken from the eye ground using a hematocrit tube. The blood was centrifuged at 9000 G for 5 min and the obtained serum was used for the determination. Human FXa inhibitory activity was determined in the same manner as in the test by intravenous administration.

[4] = target: T1, Human FXa; experiment: Intravenous administration test in mouse, human FXa inhibitory activity in serum; assay type: in vivo; conditions: ICR mice, i.v., mean ± S.D., n = 3
Protocol: Intravenous Administration Tests in Mouse
A test compound dissolved in physiological saline was intravenously administered to ICR mice (body weight 20-30 g, 4-6 weeks old) and the activity of the test compound was evaluated based on the human FXa inhibitory activity in serum as an indicator.
At 10, 30, 60, 120 min from the intravenous administration, blood was taken from the eye ground using a hematocrit tube. The blood was centrifuged at 9000 G for 5 min and the obtained serum was used for the determination.
as §4

[5] = system: decrease of platelets and formation of FDP by thromboplastin; experiment: Blood coagulation model in rat (thromboplastin); assay type: in vivo; conditions: i.v. 10 min before thromboplastin, mean ± S.D, n = 3; for PLT value: counted 10 min later; for FDP value: measured 30 min later
Protocol: Blood Coagulation Model in Rat
Intravenous administration of thromboplastin (Sigma) to rat promotes coagulation system, which in turn decreases platelets and increases fibrin degradation product (FDP). Thus, the test compound was intravenously administered 10 min before thromboplastin administration and the inhibitory effects of the test compound on the decrease of platelets and the formation of FDP by thromboplastin were studied. The thromboplastin administered had such concentration as to form clots within 20 seconds from the addition of one plasma dose to two thromboplastin doses and was administered in 1 ml/kg dose. Platelets were counted (PLT value) 10 min later on a blood cell counter sysmex F-800 [Dade International Inc. (USA)], and FDP was measured 30 min later using FDP latex reagent for serum [Teikoku Hormone Mfg. Co., Ltd. (Tokyo, Japan)]. In every Example, the PLT value of the thromboplastin untreated group was (106±13)×10^4 and the FDP value of this group was 0±0 μg/ml.

[6] = system: normal plasma; experiment: Determination of prothrombin time (PT), human plasma; assay type: biochemical
Protocol: as §1, §2, §3

[7] = system: normal plasma; experiment: Determination of prothrombin time (PT), rat plasma; assay type: biochemical
Protocol: as §1, §2, §3

[8] = target: T2, Human FIIa (Homo sapiens, UniProt P00734); experiment: Determination of anti-factor IIa (FIIa) activity, synthetic substrate S-2238; assay type: biochemical; conditions: S-2238, 37° C., pH 8.4, read-out: Experimental Example 2: anti-FIIa activity, IC50
T2 construct: purchased Sigma

[9] = target: T1, Human FXa; experiment: Oral administration test in monkey, human FXa inhibitory activity in plasma; assay type: in vivo; conditions: crab-eating monkey, mean ± S.D., n = 3
Protocol: as §4
Oral Administration Tests in Monkey
A test compound dissolved in distilled water was orally administered to monkey (carb-eating monkey, body weight 3.5-4.5 kg) and the activity of the test compound was evaluated based on the human FXa inhibitory activity in plasma as an indicator.
(§5) At 30, 60, 120, 240, 480 min from the oral administration, blood was taken from the saphenous vein with the passage of time and the blood was centrifuged at 2000 G for 10 min. The obtained citric acid plasma was used for the determination. Human FXa inhibitory activity was determined in the same manner as in the test by intravenous administration.

[10] = target: T1, Human FXa; experiment: Intravenous administration test in monkey, human FXa inhibitory activity in plasma; assay type: in vivo; conditions: crab-eating monkey, i.v., mean ± S.D., n = 3
Protocol: as §4
Intravenous Administration Tests in Monkey
A test compound dissolved in physiological saline was intravenously administered to monkey (crab-eating monkey, body weight 3.5-4.5 kg) and the activity of the test compound was evaluated based on the human FXa inhibitory activity in plasma as an indicator.
as §5, with “At 10,” for “At”, “180” for “240, 480”, “intravenous” for “oral”, “using mouse.” for “by intravenous administration.”

T1 sequence (P00742 235-488 limits assumed): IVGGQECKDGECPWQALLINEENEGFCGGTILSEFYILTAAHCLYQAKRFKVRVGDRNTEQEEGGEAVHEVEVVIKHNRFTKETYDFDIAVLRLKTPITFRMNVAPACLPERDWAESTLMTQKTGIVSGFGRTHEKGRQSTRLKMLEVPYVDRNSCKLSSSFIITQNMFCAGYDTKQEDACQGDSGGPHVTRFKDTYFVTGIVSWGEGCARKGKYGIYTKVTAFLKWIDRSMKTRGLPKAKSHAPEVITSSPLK
T1 sequence (P00742 41-179 limits assumed): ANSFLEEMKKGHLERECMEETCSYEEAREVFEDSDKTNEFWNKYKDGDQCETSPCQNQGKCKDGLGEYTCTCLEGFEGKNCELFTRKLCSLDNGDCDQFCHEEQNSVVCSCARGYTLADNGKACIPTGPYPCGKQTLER

SMILES | CT2 (drug concentration that doubled the PT) [1] | CT2 (drug concentration that doubled the PT) [2] | inhibition at 10 mg/kg ([3]; 30 minutes) | inhibition at 10 mg/kg ([3]; 60 minutes) | inhibition at 10 mg/kg ([3]; 120 minutes) | inhibition at 10 mg/kg ([3]; 180 minutes) | inhibition at 1 mg/kg ([4]; 10 minutes) | inhibition at 1 mg/kg ([4]; 30 minutes) | inhibition at 1 mg/kg ([4]; 60 minutes) | inhibition at 1 mg/kg ([4]; 120 minutes) | PLT value ([5]; dose 0.1 mg/kg) | FDP value ([5]; dose 0.1 mg/kg) | PLT value ([5]; dose 0.3 mg/kg) | FDP value ([5]; dose 0.3 mg/kg) | CT2 (drug concentration that doubled the PT) [6] | CT2 (drug concentration that doubled the PT) [7] | other results
CC(=N)N1CC[C@H](Oc2ccc([C@H](Cc3ccc4ccc(C(=N)N)cc4c3)C(=O)O)cc2)C1 [Comparative Example 1, (2S)-2-[4-[(3S)-1-acetimidoylpyrrolidin-3-yloxy]phenyl]-3-[7-amidinonaphthalen-2-yl]propionic acid hydrochloride pentahydrate, reference compound] | 10 µM | 4 µM | 11 ± 4% | 6 ± 4% | 6 ± 4% | 6 ± 4% | 43 ± 3% | 14 ± 2% | 0% | 1 ± 2% | 67 ± 16 ×10^4 blood platelet/μl | 3 ± 2 µg/mL | 100 ± 5 ×10^4 blood platelet/μl | 1 ± 1 µg/mL | 2 µM | 10 µM | PLT value ([5]; dose 0.03 mg/kg): 41 ± 9 ×10^4 blood platelet/μl; FDP value ([5]; dose 0.03 mg/kg): 9 ± 2 µg/mL
N=C(N)N1CCc2ccc(OCC3(C(=O)O)CCN(c4ccncc4)CC3)cc2C1 [Example 7, 4-(2-Amidino-1,2,3,4-tetrahydroisoquinolin-7-yloxymethyl)-1-(pyridin-4-yl)piperidine-4-carboxylic Acid Dihydrochloride] | 10 µM | – | 48 ± 7% | 40 ± 9% | 26 ± 7% | 18 ± 9% | 64 ± 2% | 54 ± 1% | 46 ± 4% | 30 ± 5% | 66 ± 21 ×10^4 blood platelet/μl | 7 ± 3 µg/mL | 72 ± 10 ×10^4 blood platelet/μl | 4 ± 1 µg/mL | 0.5 µM | 30 µM | inhibition at 3 mg/kg ([4]; 10 minutes): 82 ± 1%; inhibition at 3 mg/kg ([4]; 30 minutes): 78 ± 1%; inhibition at 3 mg/kg ([4]; 60 minutes): 72 ± 2%; inhibition at 3 mg/kg ([4]; 120 minutes): 59 ± 5%; PLT value ([5]; dose 1 mg/kg): 96 ± 18 ×10^4 blood platelet/μl; FDP value ([5]; dose 1 mg/kg): 0 ± 0 µg/mL; IC50 [8]: > 10 µM
N=C(N)N1CCc2ccc(OCC3(C(=O)O)CCN(c4ccncc4)CC3)cc2C1 [Example 9, 4-(2-Amidino-1,2,3,4-tetrahydroisoquinolin-7-yloxymethyl)-1-(pyridin-4-yl)piperidine-4-carboxylic Acid Hydrochloride] | – | – | – | – | – | – | – | – | – | – | – | – | – | – | – | – | inhibition at 10 mg/kg ([9]; 30 minutes): 28 ± 33%; inhibition at 10 mg/kg ([9]; 60 minutes): 37 ± 27%; inhibition at 10 mg/kg ([9]; 120 minutes): 46 ± 20%; inhibition at 10 mg/kg ([9]; 240 minutes): 49 ± 9%; inhibition at 10 mg/kg ([9]; 480 minutes): 23 ± 11%; inhibition at 1 mg/kg ([10]; 10 minutes): 82 ± 1%; inhibition at 1 mg/kg ([10]; 30 minutes): 72 ± 2%; inhibition at 1 mg/kg ([10]; 60 minutes): 58 ± 4%; inhibition at 1 mg/kg ([10]; 120 minutes): 41 ± 3%; inhibition at 1 mg/kg ([10]; 180 minutes): 29 ± 2%
N=C(N)N1CCc2ccc(OCC3(C(=O)O)CCN(c4ccncc4)CC3)cc2C1 [Example 67, 4-(2-Amidino-1,2,3,4-tetrahydroisoquinolin-7-yloxymethyl)-1-(pyridin-4-yl)piperidine-4-carboxylic Acid Methanesulfonate] | – | 5 µM | – | – | – | – | – | – | – | – | – | – | – | – | – | – | –
